From patent publication US20230201342A1, “USE OF LENVATINIB PLUS ANTI-PD-1 MONOCLONAL ANTIBODY IN PREPARATION OF ANTI-HEPATOMA DRUG” (Guangzhou X Cell Therapy Biomedical Tech Co., Ltd, priority 2021, published 2023) come the findings set out here.

Assay [1] deals with mouse hepatoma cells (Hepa1-6) xenograft. Nature of the assay: subcutaneous tumorigenicity assay, tumor size (Example 1). The assay is classed as in vivo. On the procedure: 3. Detection of the effects of different doses of lenvatinib on hepatoma xenograft by subcutaneous tumorigenicity assay of immunocompetent C57B/L mice. (1) Separately, 1×10^6 mouse hepatoma cells (Hepa1-6) were implanted into the subcutaneous stratum of the armpits of 20 […] mice aged 3-4 weeks. The mice were randomized into four groups: a blank control group, a 3 mg/kg/day lenvatinib group, a 10 mg/kg/day lenvatinib group, and a 30 mg/kg/day lenvatinib group. (2) When the size of the subcutaneous tumor reached 100-200 mm^3: each mouse of the 3 mg/kg/day lenvatinib group was orally administered with 3 mg/kg/day lenvatinib by gastric gavage once a day; each mouse of the 10 mg/kg/day lenvatinib group was orally administered with 10 mg/kg/day lenvatinib by gastric gavage once a day; and each mouse of the 30 mg/kg/day lenvatinib group was orally administered with 30 mg/kg/day lenvatinib by gastric gavage once a day. According to the existing literature, 30 mg/kg was a routine dose of lenvatinib (Selleck) for laboratory mice. (3) The tumor size was measured every two days, and the difference in tumor size was compared among groups.

Assay [2] deals with CD8-positive T cells in Hepa1-6 tumor tissue. In words: flow cytometry of CD45/CD8-positive cells in resected tumor tissue (Example 1). To be noted: 10 mg/kg/day, after 3 weeks. The assay is classed as in vivo, mouse. As for the experimental part:
(§1) (1) Separately, 1×10^6 mouse hepatoma cells (Hepa1-6) were implanted into the subcutaneous stratum of the armpits of 20 […] mice aged 3-4 weeks. The mice were randomized into four groups: a blank control group, a 3 mg/kg/day lenvatinib group, a 10 mg/kg/day lenvatinib group, and a 30 mg/kg/day lenvatinib group. (2) When the size of the subcutaneous tumor reached 100-200 mm^3: each mouse of the 3 mg/kg/day lenvatinib group was orally administered with 3 mg/kg/day lenvatinib by gastric gavage once a day; each mouse of the 10 mg/kg/day lenvatinib group was orally administered with 10 mg/kg/day lenvatinib by gastric gavage once a day; and each mouse of the 30 mg/kg/day lenvatinib group was orally administered with 30 mg/kg/day lenvatinib by gastric gavage once a day. According to the existing literature, 30 mg/kg was a routine dose of lenvatinib (Selleck) for laboratory mice. (4) After 3 weeks, the mice were sacrificed, tumor tissues were resected, a part of fresh tumor tissue was separated and ground into a single cell suspension, and the proportion of positive cells labeled with CD45 and CD8 was detected by flow cytometry; meanwhile, the other part of tumor tissue was fixed and embedded, and vascular markers (CD31, α-SMA, and VEGFR2) and CD8-positive T cell infiltration were detected by immunohistochemistry.
A general note: Flow cytometry measures light scatter and fluorescence of single cells or particles in a stream.

Assay [3] relates to CD31, NG2, CD8 in Hepa1-6 tumor tissue. Nature of the assay: immunohistochemistry of vascular markers and CD8-positive T cell infiltration in tumor tissue (Example 1). The format is in vivo, mouse. As for the experimental part: as §1
In assay [4] the test system is mouse hepatoma cells (Hepa1-6) xenograft. Nature of the assay: subcutaneous tumorigenicity assay, lenvatinib plus anti-PD-1 monoclonal antibody (Example 2). The format is in vivo. As to conditions: for growth of hepatoma xenograft: oral gavage, 3 weeks.
From the text: Detection of the effects of different doses of lenvatinib plus anti-PD-1 monoclonal antibody on hepatoma xenograft by subcutaneous tumorigenicity assay of immunocompetent C57B/L mice.
(1) Separately, 1×10^6 mouse hepatoma cells (Hepa1-6) were implanted into the subcutaneous stratum of the armpits of 24 C57B/L mice aged 3-4 weeks. The mice were randomized into six groups: The mice were randomized into six groups: a blank control group, an anti-PD-1 monoclonal antibody alone group, a low-dose lenvatinib group, a high-dose lenvatinib group, a low-dose lenvatinib+anti-PD-1 monoclonal antibody group, and a high-dose lenvatinib+anti-PD-1 monoclonal antibody group.
(2) When the size of the subcutaneous tumor reached 100-200 mm^3: each mouse of the anti-PD-1 monoclonal antibody alone group was intraperitoneally administered with 200 μg of anti-PD-1 monoclonal antibody every three days; each mouse of the low-dose lenvatinib group was orally administered with 10 mg/kg/day lenvatinib by gastric gavage once a day; each mouse of the high-dose lenvatinib group was orally administered with 30 mg/kg/day lenvatinib by gastric gavage once a day; each mouse of the low-dose lenvatinib group+anti-PD-1 monoclonal antibody was orally administered with 10 mg/kg/day lenvatinib by gastric gavage once a day and intraperitoneally administered with 200 μg of anti-PD-1 monoclonal antibody every three days; and each mouse of the high-dose lenvatinib group+anti-PD-1 monoclonal antibody was orally administered with 30 mg/kg/day lenvatinib by gastric gavage once a day and intraperitoneally administered with 200 μg of anti-PD-1 monoclonal antibody every three days.
(4) After 3 weeks, the mice were sacrificed, and data statistics and reduction were conducted.

For the molecule `COc1cc2nccc(Oc3ccc(NC(=O)NC4CC4)c(Cl)c3)c2cc1C(N)=O` [lenvatinib], in assay [1] (3 vs 10 vs 30 mg/kg/day lenvatinib), the “difference in tumor growth among the three dose groups” value is “no significant difference”. Further, in assay [1] (all three doses 3, 10, 30 mg/kg/day, oral gavage once a day, 3 weeks), the “growth of hepatoma xenograft (tumor size)” value was “inhibit the growth of hepatoma xenograft”. Besides, in assay [2], the “percentage of CD8-positive T cells in the tumor tissue” value was “significantly increased”. The “infiltrating CD8-positive T cells in the tumor tissue” value in assay [3] (10 mg/kg/day) was “significantly increased”. For the same molecule, in assay [3] (10 mg/kg/day only), the “expression of peripheral cell marker molecule NG2” value was “upregulation” and the “vascular normalization in tumor tissue” value is “significantly improve vascular normalization”. Further, the “microvessel density (CD31) in hepatoma tissue” value in assay [3] (all three doses 3, 10, 30 mg/kg/day) is given as “significantly reduce”. Besides, the “difference in tumor growth between low-dose and high-dose groups” value in assay [4] (10 vs 30 mg/kg/day lenvatinib alone) was “no significant difference”. Also, the “growth of hepatoma xenograft” value in assay [4] (high-dose lenvatinib 30 mg/kg/day) is listed as “inhibit the growth of hepatoma xenograft”. The “growth of hepatoma xenograft” value in assay [4] (low-dose lenvatinib 10 mg/kg/day) is “inhibit the growth of hepatoma xenograft”.
